TGI and GI50 data for 21 molecules are collected here from PubChem BioAssay (NCI).

Several values for one entry are separate records, joined by “and”; a condition that tells them apart may be missing. Equal values may be shown once.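 In this assay, cells in 96-well plates receive the compound at five concentrations for 48 hours. Endpoints are linearly interpolated between the surrounding concentrations. GI50 marks 50% less growth. TGI is the concentration that stops growth completely.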

Some test systems named below: HOP-92 NSCLC; CCRF-CEM leukemia; DMS 114 small cell lung; 786-0 renal; SNB-78 CNS; SK-MEL-5 melanoma; KM12 colon; HT29 colon; HOP-18 NSCLC; SN12C renal; LOX IMVI melanoma.
Common to all, as to assay: inhibition of tumour cell growth, NCI panel, 48 h

On to `O=C(NOC(=O)c1ccc([N+](=O)[O-])cc1)c1ccc(Cl)cc1`, for which the TGI with HOP-92 NSCLC is above 100 µM; with CCRF-CEM leukemia it was above 100 µM; with DMS 114 small cell lung, above 100 µM; in the test with 786-0 renal it was above 100 µM; in the test with SNB-78 CNS, 65.3 µM; in the test with SK-MEL-5 melanoma, above 100 µM. Besides, the TGI is above 100 µM with KM12 colon, above 100 µM with HT29 colon, 89.7 µM in the test with HOP-18 NSCLC and above 100 µM in the test on SN12C renal.
Consider `Nc1ccc2c(SCC(=O)Nc3ccccc3-c3ccccc3NC(=O)CSc3c4ccccc4nc4cc(N)ccc34)c3ccccc3nc2c1`, for which the TGI was 79.9 µM with HOP-92 NSCLC; above 100 µM with CCRF-CEM leukemia; 56.2 µM in the test on DMS 114 small cell lung; 56 µM with 786-0 renal; above 100 µM with SNB-78 CNS; 30.1 µM in the test on SK-MEL-5 melanoma. The TGI in the test with KM12 colon was 65.8 µM; with HT29 colon it was above 100 µM; in the test on HOP-18 NSCLC it was 68.8 µM; in the test with SN12C renal, above 87.2 µM; in the test with LOX IMVI melanoma, 66.2 µM.
With `C=C(C[N+](C)(C)C)N/N=C/c1oc(-c2ccc(OC)c(OC)c2)c(-c2ccc(OC)c(OC)c2)c1[N+](=O)[O-]`, the TGI in the test with HOP-92 NSCLC was 96.2 µM; in the test with CCRF-CEM leukemia it was 50.5 µM; in the test with 786-0 renal it was 32.9 µM; in the test on SNB-78 CNS it was above 100 µM; with SK-MEL-5 melanoma, 31.7 µM; in the test with KM12 colon, 31.5 µM. The TGI is 32.1 µM with HT29 colon, 60.4 µM with HOP-18 NSCLC, 32.6 µM in the test on SN12C renal and 28.9 µM with LOX IMVI melanoma.
Take `O=C1c2c(O)ccc(O)c2C(=O)c2c(NCCNCCO)ccc(NCCNCCO)c21`: the GI50 in the test with HOP-92 NSCLC is 0.0312 µM; with CCRF-CEM leukemia, 13.9 nM; in the test with KM12 colon it was 0.459 µM. The TGI with HOP-92 NSCLC was 0.773 µM and 0.425 µM and 0.0779 µM; with DMS 114 small cell lung, 0.263 µM; in the test with 786-0 renal it was 0.13 µM and 0.299 µM and 0.584 µM; in the test on SNB-78 CNS, 1.66 µM; in the test with SK-MEL-5 melanoma, 0.689 µM and 0.329 µM and 0.657 µM; in the test on KM12 colon it was 2.58 µM and 2.59 µM and 3.9 µM. In addition, the TGI with HT29 colon is 1.05 µM and 0.761 µM and 3.63 µM; with HOP-18 NSCLC it was 1.67 µM; with SN12C renal, 0.162 µM and 1.57 µM and 0.214 µM; with LOX IMVI melanoma it was 0.191 µM and 0.571 µM and 0.706 µM.
Consider `COc1cc(-c2nn3c(=O)n(-c4ccc(Cl)cc4)c(=O)nc3s2)cc(OC)c1OC`, for which the GI50 in the test on HOP-92 NSCLC is 44.4 µM; in the test with CCRF-CEM leukemia, above 5000 nM; with 786-0 renal, 17.4 µM; with SNB-78 CNS, 8.88 µM; with KM12 colon it was above 50 µM; in the test with HT29 colon it was above 50 µM. The GI50 in the test with SN12C renal and in the test with LOX IMVI melanoma was above 50 µM throughout. For the same molecule, the TGI is 50 µM and 59.7 µM in the test with HOP-92 NSCLC; above 100 µM with CCRF-CEM leukemia; 50 µM and 41.4 µM in the test with 786-0 renal; 50 µM and > 100 µM with SNB-78 CNS; above 100 µM in the test with SK-MEL-5 melanoma; above 100 µM in the test with KM12 colon. The TGI with HT29 colon was above 100 µM; in the test on HOP-18 NSCLC it was above 100 µM; with SN12C renal, above 100 µM; in the test on LOX IMVI melanoma, above 50 µM.
Turning to `O=C1[C@H]2ON(c3ccccc3)C(c3cccc([N+](=O)[O-])c3)[C@H]2C(=O)N1c1ccc(Cc2ccc(N3C(=O)[C@@H]4ON(c5ccccc5)C(c5cccc([N+](=O)[O-])c5)[C@@H]4C3=O)cc2)cc1` (some centres undefined), the TGI in the test on CCRF-CEM leukemia, in the test on DMS 114 small cell lung, in the test on 786-0 renal, in the test with SNB-78 CNS, in the test on SK-MEL-5 melanoma and in the test on KM12 colon was above 100 µM throughout. Besides, the TGI in the test with HT29 colon, in the test with HOP-18 NSCLC, with SN12C renal and with LOX IMVI melanoma was above 100 µM throughout.
For the molecule `C=CCN(N=O)C(=O)ON1C(=O)CCC1=O`, the TGI in the test on HOP-92 NSCLC, in the test with CCRF-CEM leukemia, in the test with DMS 114 small cell lung, with 786-0 renal, in the test on SNB-78 CNS and in the test with KM12 colon was above 100 µM in each case. In addition, the TGI in the test on HT29 colon, in the test on HOP-18 NSCLC, in the test on SN12C renal and with LOX IMVI melanoma was above 100 µM throughout.
For the molecule `COC(=O)C1=C(C(=O)OC)N(C(C)C)[C@H]2C(C(=O)OC)=C(C(=O)OC)N(C(C)C)[C@@H]12`, the TGI in the test with HOP-92 NSCLC, in the test with CCRF-CEM leukemia, in the test on DMS 114 small cell lung, in the test with 786-0 renal, in the test with SNB-78 CNS and in the test with SK-MEL-5 melanoma was above 100 µM throughout. In addition, the TGI in the test with KM12 colon, in the test with HT29 colon, with HOP-18 NSCLC, in the test on SN12C renal and in the test with LOX IMVI melanoma was above 100 µM throughout.
`CC1(C)Oc2ccccc2N2O[C@@H]3C(=O)N(c4ccccc4)C(=O)[C@@H]3C21c1ccccc1` (some centres undefined): the TGI in the test on CCRF-CEM leukemia is above 100 µM; in the test on DMS 114 small cell lung, 62.9 µM; with 786-0 renal it was 30.3 µM; with SNB-78 CNS it was 79.4 µM; in the test with SK-MEL-5 melanoma, 44.3 µM; in the test on KM12 colon, above 100 µM. For the same molecule, the TGI with HT29 colon came out at 68.5 µM; with HOP-18 NSCLC, 49.1 µM.
As for `BrC(Br)([P+](c1ccccc1)(c1ccccc1)c1ccccc1)[P+](c1ccccc1)(c1ccccc1)c1ccccc1`, the TGI came out at 31.2 µM in the test with HOP-92 NSCLC; 30.3 µM in the test on DMS 114 small cell lung; 26.9 µM in the test on 786-0 renal; 90.1 µM in the test with SNB-78 CNS; 32.2 µM with SK-MEL-5 melanoma; 31.9 µM in the test on HT29 colon. Also, the TGI in the test with HOP-18 NSCLC was above 100 µM; with SN12C renal, 61.3 µM; in the test on LOX IMVI melanoma, 27.2 µM.
Take `CCOC(=O)c1cc(C(=O)O)c(=O)n2c1[nH]c1ccccc12`: the TGI with CCRF-CEM leukemia, with DMS 114 small cell lung, with 786-0 renal, with SNB-78 CNS, in the test with SK-MEL-5 melanoma and with KM12 colon was above 100 µM throughout. Further, the TGI with HT29 colon, in the test with HOP-18 NSCLC and in the test with SN12C renal was above 100 µM in each case.
As for `O=c1/c(=C/c2ccc3c(c2)OCO3)sc2nnc(Cc3ccccc3)n12`, the TGI with HOP-92 NSCLC, with CCRF-CEM leukemia, with DMS 114 small cell lung, in the test on 786-0 renal, with SNB-78 CNS and in the test with SK-MEL-5 melanoma was above 100 µM each time. The TGI with KM12 colon, with HOP-18 NSCLC, in the test on SN12C renal and with LOX IMVI melanoma was above 100 µM throughout.
As for `c1cc2ccc1C1NCCCN1CCN1CCCNC1c1ccc(cc1)C1NCCCN1CCN1CCCNC21` (centres undefined), the TGI with HOP-92 NSCLC, in the test on CCRF-CEM leukemia, in the test on DMS 114 small cell lung, in the test with 786-0 renal, in the test on SK-MEL-5 melanoma and with KM12 colon was above 100 µM in each case. In addition, the TGI in the test on HT29 colon, in the test with HOP-18 NSCLC, in the test on SN12C renal and in the test with LOX IMVI melanoma was above 100 µM in each case.
For `CC12O[Te]34OC1(C)C(C)(O3)C2(C)O4`, the TGI was 25.7 µM in the test with DMS 114 small cell lung; 29.3 µM in the test on 786-0 renal; 65.9 µM in the test on SNB-78 CNS; 27.4 µM in the test with KM12 colon; 30.3 µM in the test on HT29 colon; 32 µM in the test with HOP-18 NSCLC. Moreover, the TGI in the test with SN12C renal was determined as 23 µM; in the test with LOX IMVI melanoma, 16.4 µM.
As to `C1=CC=C2NCCSCCNC3=CC=CC=CC3=NCCSCCN=C2C=C1`, the TGI in the test on CCRF-CEM leukemia, in the test with DMS 114 small cell lung, in the test with 786-0 renal, in the test with SNB-78 CNS, in the test with SK-MEL-5 melanoma and with KM12 colon was above 100 µM each time. The TGI with HT29 colon, in the test on HOP-18 NSCLC, with SN12C renal and with LOX IMVI melanoma was above 100 µM each time.
As to `O=C1OC(c2ccc(Cl)c3ccccc23)c2ccccc21` (centres undefined), the TGI in the test on HOP-92 NSCLC, in the test with CCRF-CEM leukemia, in the test on DMS 114 small cell lung, in the test on 786-0 renal, in the test on SNB-78 CNS and in the test with SK-MEL-5 melanoma was above 100 µM each time. For the same molecule, the TGI with KM12 colon, in the test with HT29 colon, in the test with HOP-18 NSCLC and in the test on SN12C renal was above 100 µM in each case.
Turning to `COc1cc2c3c(c1OC)/C(=N/OS(=O)(=O)c1ccc(C)cc1)CC3N(S(=O)(=O)c1ccc(C)cc1)CC2` (centres undefined), the TGI in the test on HOP-92 NSCLC, with CCRF-CEM leukemia, in the test on DMS 114 small cell lung, in the test with 786-0 renal, with SNB-78 CNS and in the test on SK-MEL-5 melanoma was above 100 µM each time. For the same molecule, the TGI with KM12 colon, in the test on HT29 colon, with HOP-18 NSCLC, in the test with SN12C renal and with LOX IMVI melanoma was above 100 µM in each case.
Consider `C/C(N=NC(=S)N1CCCCCC1)=C1\C=CC=CN1O`, for which the TGI in the test with HOP-92 NSCLC was 72.4 µM; in the test on CCRF-CEM leukemia, 4.93 µM; in the test with DMS 114 small cell lung, 3.45 µM; with 786-0 renal it was above 49.9 µM; in the test with SNB-78 CNS it was above 100 µM; in the test on SK-MEL-5 melanoma, 35.3 µM. Further, the TGI in the test on KM12 colon is above 100 µM; in the test with HT29 colon it was above 35.6 µM; with HOP-18 NSCLC, above 92.9 µM; in the test with SN12C renal it was above 100 µM; in the test with LOX IMVI melanoma, above 56.3 µM.
For `CN1C(=O)CC2(C)c3cc(C=O)ccc3N(C)C12` (centres undefined), the TGI in the test with HOP-92 NSCLC, in the test on CCRF-CEM leukemia, with DMS 114 small cell lung, in the test on 786-0 renal, in the test on SNB-78 CNS and with SK-MEL-5 melanoma was above 100 µM each time. Moreover, the TGI with KM12 colon, with HT29 colon, in the test on HOP-18 NSCLC, with SN12C renal and with LOX IMVI melanoma was above 100 µM in each case.
On to `CN1C=C(C(N)=O)C2CC(O)[C@@](NC(=O)CS(N)(=O)=O)(C(=O)O)C2C1` (some centres undefined), for which the TGI was 5.05 µM with HOP-92 NSCLC; above 100 µM in the test on CCRF-CEM leukemia; 7.38 µM in the test on DMS 114 small cell lung; 16.4 µM in the test with 786-0 renal; 8.68 µM in the test with SNB-78 CNS; 15.7 µM with SK-MEL-5 melanoma. The TGI is 49.8 µM in the test on KM12 colon; 10.6 µM in the test on HT29 colon; above 100 µM in the test with HOP-18 NSCLC; above 75.1 µM with SN12C renal; 5.58 µM with LOX IMVI melanoma.
As for `O=c1ncccn1C1OC(CO)C(O)C1F` (centres undefined), the TGI with HOP-92 NSCLC, with CCRF-CEM leukemia, in the test with DMS 114 small cell lung, in the test with 786-0 renal, in the test with SNB-78 CNS and in the test on SK-MEL-5 melanoma was above 100 µM each time. The TGI with KM12 colon, with HT29 colon, in the test with HOP-18 NSCLC, with SN12C renal and in the test on LOX IMVI melanoma was above 100 µM throughout. Moreover, the GI50 is above 100000 nM with CCRF-CEM leukemia and above 100 µM with KM12 colon.
